# Marks after values point to notes of the source that are not given here.
# Columns and labels:
# [1] = test system: C albicans; assay: Clearance of C. albicans in mice treated with NO synthase inhibitor; format: in vivo; settings: ip daily for 3 days after infection; two mouse strains (H2d); FIG. 9
# Procedure: To identify the immune parameters of protection, the levels of IFN-γ were determined at various times following infection with C. albicans. […] Since nitric oxide production is associated with host defence in parasitic infection, quantitation of NO was performed following infection in two mouse strains sharing the same H2d MHC haplotype. In this experiment mice were infected with C albicans and then followed by ip injection with an inhibitor of NO synthase, by injecting NG-monomethyl-L-arginine monoacetate (MNLA) daily for 3 days after which time the clearance rate of yeasts was determined.
# [2] = test system: Helicobacter pylori; assay: Metronidazole therapy of H. pylori infection in mice pre-treated with probiotic; format: in vivo; settings: for % eradication: compared with saline-treated control group
# Procedure: H. pylori infected mice (5 per group) were treated with Lactobacillus acidophilus (1×10^9 per animal) by oral feeding 3 times a week for 2 weeks prior to treatment with Metronidazole (0.08 mg/animal) for 1 week.
# [3] = test system: S typhimurium; assay: Translocation of S typhimurium to spleen in mice fed L fermentum and vaccinated with killed oral Salmonella vaccine; format: in vivo, BALB/c mice; settings: for S typhimurium in spleen (±SEM): live oral challenge
# Procedure: BALB/c female mice (6-8 weeks old) were fed 10^8 L fermentum VRI012 (obtained from University of New South Wales, School of Microbiology and Immunology Culture Collection, Sydney, Australia) before or co-administered with 10^8 killed S typhimurium vaccine four times over a 2 week period. Two weeks after oral administration, the mice were challenged with live S typhimurium administered by the oral route. After sacrifice, the level of colonisation with S typhimurium in the spleen was determined.
# [4] = test system: Non-typeable Haemophilus influenzae (NTHi); assay: Clearance of NTHi from lungs of rats given a single intraduodenal dose of L. fermentum; format: in vivo, dark agouti (DA) rats
# Procedure: Groups of 6 male, specific pathogen free, dark agouti (DA) rats were given a single dose of PBS or live L. fermentum (2.5×10^10) directly into the duodenal lumen after exposure of the intestine by laparotomy. Twenty-one days later the rats were infected intratracheally with 5×10^8 live Non-typeable Haemophilus influenzae (NTHi). Four hours later the rats were killed by pentobarbitone overdose. The lungs were lavaged with 10 mL PBS to obtain broncho-alveolar lavage fluid (BAL). The lavaged lungs were then homogenised in 10 mL of PBS. Twenty microlitres of ten-fold serial dilutions of BAL and lung homogenate (LH) were plated on chocolate agar plates and incubated in a 10% CO2 incubator at 37° C. overnight. Colonies were counted and the number of live bacteria in the BAL and LH preparations determined. The recovery of live NTHi bacteria, presented as colony forming units (CFU), was as follows: […]
molecule,measurement,setting,value
"CC(=O)O.CNC(=N)NCCC[C@H](N)C(=O)O [MNLA, NG-monomethyl-L-arginine monoacetate]",clearance of yeasts compared with untreated mice,[1],delayed clearance of yeasts
"Cc1ncc([N+](=O)[O-])n1CCO [Metronidazole, reference compound]",H. pylori colonisation,"[2]; L acidophilus 1×10^9 orally 3 times a week for 2 weeks, Metronidazole 0.08 mg/animal for 1 week",11.4 ± 2.5 ×10^5 CFU/animal
same,% eradication,[2],55^b %
same,% eradication,[2]; listed as metronidazole,55%
Lactobacillus fermentum [L. fermentum],S typhimurium in spleen (±SEM),[3]; 10^8 co-administered with 10^8 killed S typhimurium vaccine,4.5 ± 0.22 p < 0.05 vs Control Log CFU/g wet wt
same,S typhimurium in spleen (±SEM),[3]; 10^8 fed before 10^8 killed S typhimurium vaccine,3.8 ± 0.12 p < 0.05 vs Control Log CFU/g wet wt
same,level of translocation compared with mice fed PBS,[3]; fed prior to immunisation or co-administered with killed S typhimurium,low levels of translocation
same,"LH, live NTHi recovered","[4]; lung homogenate, CFU, single dose 2.5×10^10 into duodenal lumen, challenge day 21, 4 hours",0.82 ± 0.37 p = 0.017* 10^6
same,"BAL CFU, live NTHi recovered","[4]; single dose 2.5×10^10 into duodenal lumen, challenge day 21, 4 hours",0.49 ± 0.19 CFU (10^6)
same,clearance of acute NTHi respiratory infection,[4]; single dose delivered to the gut,enhanced clearance
